Common to all, as to format: in vivo
One experiment relates to Nephotettix cincticeps. Briefly: Nephotettix cincticeps test (NEPHCI). The conditions noted are these: 0.16 ppm. The protocol: Nephotettix cincticeps Test (NEPHCI)
(§1) Solvent: 7 parts by weight of dimethylformamide
(§2) Emulsifier: alkylaryl polyglycol ether
(§3) To produce an appropriate active ingredient formulation, 1 part by weight of active ingredient is dissolved using the stated parts by weight of solvent and made up with water containing an emulsifier concentration of 1000 ppm until the desired concentration is attained. To produce further test concentrations, the preparation is diluted with emulsifier-containing water. In the event that addition of ammonium salts or/and penetrants (rapeseed oil methyl ester) is required, these are each pipetted in a concentration of 1000 ppm after the finished formulation solution has been diluted.
Rice plants (Oryza sativa, var. Balilla) are treated by spraying with the active ingredient formulation in the desired concentration and then populated with larvae of the green rice leafhopper (Nephotettix cincticeps).
After the desired time, the kill in % is determined. 100% means that all leafhoppers have been killed; 0% means that none of the leafhoppers have been killed.

The test system of another experiment is Phaedon cochleariae. In words: Phaedon cochleariae spray test (PHAECO). The settings on record: application rate 500 g/ha; larvae; after 7 days. The procedure, abridged:
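Chinese cabbage leaf discs sprayed with compound in acetone/dimethylformamide with alkylaryl polyglycol ether emulsifier in water, dried, then infested with mustard beetle larvae. Efficacy scored after 7 days as % larvae killed (100% = all dead, 0% = none).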

A further experiment concerns Aphis gossypii. In words: Aphis gossypii translaminar test (APHIGO t). The settings on record: 2.4 g/ha, 7 dat. As for the experimental part: Aphis gossypii—Translaminar Test (APHIGO t)
as §1, §2, §3
One-leaved cotton plants (Gossypium hirsutum) heavily infested by the cotton aphid (Aphis gossypii) are treated by spraying the top side of the leaf with the active ingredient formulation in the desired concentration.
(§4) After the desired time, the kill in % is determined. 100% means that all the aphids have been killed and 0% means that none of the aphids have been killed.

In experiment [1] the test system is Myzus persicae. In words: Myzus persicae spray test (MYZUPE), Chinese cabbage leaf discs. The conditions noted are these: application rate 500 g/ha, after 6 days. As for the experimental part: Myzus persicae—Spray Test (MYZUPE)
Solvent: 78 parts by weight of acetone • • 1.5 parts by weight of dimethylformamide
(§5) Emulsifier: alkylaryl poly glycol ether
(§6) To produce an appropriate active ingredient formulation, 1 part by weight of active ingredient is dissolved using the stated parts by weight of solvent and made up with water containing an emulsifier concentration of 1000 ppm until the desired concentration is attained. To produce further test concentrations, the preparation is diluted with emulsifier-containing water.
Discs of Chinese cabbage leaves (Brassica pekinensis) infested by all stages of the green peach aphid (Myzus persicae) are sprayed with an active ingredient formulation of the desired concentration.
After 6 days, the efficacy in % is determined. 100% means that all the aphids have been killed; 0% means that none of the aphids have been killed.

The subject of a further experiment is Musca domestica. Briefly: Musca domestica test (MUSCDO). The conditions noted are these: application rate 20 ppm; adult houseflies; after 2 days. As for the experimental part:
Musca domestica Test (MUSCDO) Solvent: dimethyl sulphoxide To produce an appropriate active ingredient formulation, 10 mg of active ingredient are mixed with 0.5 ml of dimethyl sulphoxide, and the concentrate is diluted with water to the desired concentration. Vessels containing a sponge treated with sugar solution and the active ingredient formulation of the desired concentration are populated with 10 adult houseflies (Musca domestica). After 2 days, the kill in % is determined. 100% means that all of the flies have been killed; 0% means that none of the flies have been killed.

The next experiment concerns Lucilia cuprina. Briefly: Lucilia cuprina test (LUCICU). The settings on record: application rate 100 ppm; L1 larvae; after 2 days. As for the experimental part:
Lucilia cuprina Test (LUCICU) Solvent: dimethyl sulphoxide To produce an appropriate active ingredient formulation, 10 mg of active ingredient are mixed with 0.5 ml of dimethyl sulphoxide, and the concentrate is diluted with water to the desired concentration. About 20 L1 larvae of the Australian sheep blowfly (Lucilia cuprina) are transferred into a test vessel containing minced horsemeat and the active ingredient preparation of the desired concentration. After 2 days, the kill in % is determined. 100% means that all the larvae have been killed; 0% means that none of the larvae have been killed.

In a further experiment the test system is Nilaparvata lugens. Briefly: Nilaparvata lugens test (NILALU). The conditions noted are these: 4 ppm. The protocol: Nilaparvata lugens Test (NILALU)
as §1, §2, §3
Rice plants (Oryza sativa, var. Balilla) are treated by spraying with the active ingredient formulation in the desired concentration and then populated with L3 larvae of the brown planthopper (Nilaparvata lugens).
After the desired time, the feeding damage in % is determined. 100% means that no feeding damage is found; 0% means that the feeding damage to the treated plant corresponds to that of the untreated control.

Experiment [2] concerns Myzus persicae. Briefly: Myzus persicae contact test (MYZUPE c). The settings on record: 2.4 g/ha, 14 dat. The protocol:
Myzus persicae—Contact Test (MYZUPE c)
as §1, §5, §3
One-leaved bell pepper plants (Capsicum annuum) heavily infested by the green peach aphid (Myzus persicae) are treated by spraying the underside of the leaf with the active ingredient formulation in the desired concentration.
as §4

The next experiment deals with Ctenocephalides felis. In words: Ctenocephalides felis oral test (CTECFE). The conditions noted are these: application rate 100 ppm; in citrated cattle blood; after 2 days. The protocol:
Ctenocephalides felis-Oral Test ([…]) Solvent: dimethyl sulphoxide For the purpose of producing an appropriate active ingredient formulation, 10 mg of active ingredient are mixed with 0.5 ml of dimethyl sulphoxide. Dilution with citrated cattle blood gives the desired concentration. About 20 unfed adult cat fleas (Ctenocephalides felis) are placed into a chamber which is closed at the top and bottom with gauze. A metal cylinder whose bottom end is closed with parafilm is placed onto the chamber. The cylinder contains the blood/active ingredient preparation, which can be imbibed by the fleas through the parafilm membrane. After 2 days, the kill in % is determined. 100% means that all of the fleas have been killed; 0% means that none of the fleas have been killed.

The test system of another experiment is Spodoptera frugiperda. In words: Spodoptera frugiperda spray test (SPODFR). The settings on record: application rate 500 g/ha; maize leaf discs; after 7 days. As for the experimental part:
Spodoptera frugiperda—Spray Test (SPODFR)
Solvent: 78.0 parts by weight of acetone • • 1.5 parts by weight of dimethylformamide
as §2, §6
Leaf discs of maize (Zea mays) are sprayed with an active ingredient formulation of the desired concentration and, after drying, populated with caterpillars of the armyworm (Spodoptera frugiperda).
After 7 days, the efficacy in % is determined. 100% means that all the caterpillars have been killed; 0% means that no caterpillars have been killed.

The subject of the next experiment is Boophilus microplus. In words: Boophilus microplus injection test (BOOPMI Inj). The settings on record: application rate 20 μg/animal; injection into engorged adult female cattle ticks; after 7 days. As for the experimental part:
Boophilus microplus—Injection Test (BOOPMI Inj)
Solvent: dimethyl sulphoxide
To produce an appropriate active ingredient formulation, 10 mg of active ingredient are mixed with 0.5 ml of solvent and the concentrate is diluted with solvent to the desired concentration.
1 μl of the active ingredient solution is injected into the abdomen of 5 engorged adult female cattle ticks (Boophilus microplus). The animals are transferred into dishes and kept in a climate-controlled room.
Efficacy is assessed after 7 days by laying of fertile eggs. Eggs which are not visibly fertile are stored in a climate-controlled cabinet until the larvae hatch after about 42 days. An efficacy of 100% means that none of the ticks has laid any fertile eggs; 0% means that all the eggs are fertile.

For the compound `CCS(=O)(=O)c1cc(C(F)(F)F)cnc1-c1nc2cc(C(F)(F)F)ncc2n1C` [Example I-21], the “% efficacy” value in the experiment with Nephotettix cincticeps (14 dat) was found to be 90%; in the experiment with Nephotettix cincticeps (21 dat), 95%; with Nephotettix cincticeps (34 dat) it was 100%; in the experiment on Aphis gossypii, 65%; in the experiment with Nilaparvata lugens (21 dat), 90%; with Nilaparvata lugens (28 dat), 100%. Moreover, in the experiment with Myzus persicae [2], the “% efficacy” value was determined as 85%. The values for the efficacy in the experiment on Phaedon cochleariae, in the experiment with Myzus persicae [1] and with Spodoptera frugiperda were 100%, 90% and 100%, respectively. Besides, the “efficacy (kill)” value with Musca domestica turned out to be 95%; in the experiment on Lucilia cuprina, 100%; in the experiment with Ctenocephalides felis, 90%. Further, the “efficacy (laying of fertile eggs)” value with Boophilus microplus is on record as 80%.
